ChEMBL document CHEMBL5126507, “P2Y12 antagonists: Approved drugs, potential naturally isolated and synthesised compounds, and related in-silico studies” (Eur J Med Chem, 2022)

Columns and labels:
[1] = Antiplatelet activity in human platelet rich plasma assessed as inhibition of ADP-induced platelet aggregation preincubated for 5 mins followed by ADP addition and measured after 20 mins by microplate reader analysis; assay type: functional, cell-based
[2] = biological target: T1, P2Y purinoceptor 12 (Homo sapiens, UniProt Q9H244); experiment: Inhibition of 2-MeS-ADP induced P2Y12 (unknown origin) signalling expressed in CHO cells membrane incubated for 45 mins by 35S-GTPgammaS assay; assay type: functional, cell membranes
[3] = Antiplatelet activity in human platelet rich plasma assessed as inhibition of collagen-induced platelet aggregation at 3 uM preincubated for 2 mins followed by collagen addition by turbidimetric method relative to control; assay type: functional; set-up: scale not given: the % may be the effect or the level left
[4] = Antiplatelet activity in human platelet rich plasma assessed as inhibition of ADP-induced platelet aggregation at 10 uM preincubated for 2 mins followed by ADP addition by turbidimetric method relative to control; assay type: functional; set-up: scale not given: the % may be the effect or the level left
[5] = Antiplatelet activity in human platelet rich plasma assessed as inhibition of thrombin-induced platelet aggregation at 3 uM preincubated for 2 mins followed by thrombin addition by turbidimetric method relative to control; assay type: functional; set-up: scale not given: the % may be the effect or the level left
[6] = Antiplatelet activity in rabbit platelet rich plasma assessed as inhibition of ADP-induced platelet aggregation preincubated for 5 mins followed by ADP addition and measured after 5 mins by turbidimetric method; assay type: functional, cell-based; conditions: Oryctolagus cuniculus
[7] = Antiplatelet activity in human platelet rich plasma assessed as inhibition of ADP-induced platelet aggregation preincubated for 2 mins followed by ADP addition for 5 mins; assay type: functional, cell-based
[8] = Antiplatelet activity in human platelet rich plasma assessed as inhibition of ADP-induced platelet aggregation preincubated for 2 mins followed by ADP addition and measured after 6 mins by Born method; assay type: functional, cell-based
[9] = biological target: T1, P2Y purinoceptor 12; experiment: Displacement of tritium-labeled 2MeSADP from human P2Y12 expressed in CHO cells measured after 2 hrs by scintillation counting method; assay type: cell-based
[10] = biological target: T1, P2Y purinoceptor 12; experiment: Displacement of 2-MeS[3H]-ADP from P2Y12 (unknown origin) expressed in HEK293 cells preincubated for 5 mins followed by 2-MeS[3H]-ADP addition and measured after 30 mins by Topcount beta counter analysis; assay type: cell-based
[11] = Anti-platelet aggregation activity in rat platelets assessed as inhibition of ADP-induced aggregation pre-treated for 5 mins followed by ADP addition and measured after 5 mins; assay type: functional, cell-based
[12] = species on record: Rattus norvegicus; experiment: Anti-platelet aggregation activity in Sprague-Dawley rat assessed as reduction in bleeding time; assay type: functional
[13] = Anti-platelet aggregation activity in rat platelet rich plasma assessed as inhibition of ADP-induced aggregation at 250 ug/ml pre-treated for 5 mins followed by ADP addition by hemocytometer analysis; assay type: functional; set-up: scale not given: the % may be the effect or the level left; conditions: dose 250 µg/ml
[14] = biological target: T1, P2Y purinoceptor 12; experiment: Binding affinity to P2Y12 (unknown origin)
[15] = Lipophilicity, logP of compound; assay type: physicochemical; conditions: octanol/water
[16] = Antiplatelet activity in rabbit platelet rich plasma assessed as inhibition of ADP-induced platelet aggregation at 150.8 uM preincubated for 3 mins followed by ADP addition and measured after 5 mins relative to control; assay type: functional, Oryctolagus cuniculus; set-up: scale not given: the % may be the effect or the level left; conditions: time 8 min
[17] = Half life in human plasma; assay type: ADME, cell-free
[18] = tested on: Homo sapiens; experiment: Antiplatelet activity in human assessed as inhibition of ADP-induced platelet aggregation at 100 mg, po after 4 hrs; assay type: functional; set-up: scale not given: the % may be the effect or the level left
[19] = Antiplatelet activity in human platelet rich plasma assessed as inhibition of ADP-induced platelet aggregation; assay type: functional, cell-based
[20] = biological target: T1, P2Y purinoceptor 12; experiment: Displacement of [3H]2MeSADP from human P2Y12 preincubated for 5 mins followed by [3H]2MeSADP addition and measured after 15 mins by scintillation counting method
[21] = Anti-platelet aggregation activity in human platelets assessed as inhibition of epinephrine induced aggregation; assay type: functional, cell-based
[22] = biological target: P2Y purinoceptor 1 (Homo sapiens, UniProt P47900); experiment: Displacement of [3H]2MeSADP from human P2Y1 expressed in U2OS cell membranes incubated for 60 mins by scintillation counting method; set-up: species or system Membrane
Chain of P2Y purinoceptor 1 (P47900 whole entry): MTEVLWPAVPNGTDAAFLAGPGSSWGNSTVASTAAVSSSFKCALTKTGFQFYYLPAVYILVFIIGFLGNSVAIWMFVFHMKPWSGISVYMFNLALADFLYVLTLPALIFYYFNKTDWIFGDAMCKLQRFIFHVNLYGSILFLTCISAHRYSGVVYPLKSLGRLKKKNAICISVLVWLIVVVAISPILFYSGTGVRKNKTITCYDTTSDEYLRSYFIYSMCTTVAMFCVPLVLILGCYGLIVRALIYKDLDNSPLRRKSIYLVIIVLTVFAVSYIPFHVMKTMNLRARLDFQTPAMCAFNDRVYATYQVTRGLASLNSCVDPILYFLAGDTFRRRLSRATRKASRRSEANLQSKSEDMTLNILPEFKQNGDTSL

T1 sequence (Q9H244 whole entry): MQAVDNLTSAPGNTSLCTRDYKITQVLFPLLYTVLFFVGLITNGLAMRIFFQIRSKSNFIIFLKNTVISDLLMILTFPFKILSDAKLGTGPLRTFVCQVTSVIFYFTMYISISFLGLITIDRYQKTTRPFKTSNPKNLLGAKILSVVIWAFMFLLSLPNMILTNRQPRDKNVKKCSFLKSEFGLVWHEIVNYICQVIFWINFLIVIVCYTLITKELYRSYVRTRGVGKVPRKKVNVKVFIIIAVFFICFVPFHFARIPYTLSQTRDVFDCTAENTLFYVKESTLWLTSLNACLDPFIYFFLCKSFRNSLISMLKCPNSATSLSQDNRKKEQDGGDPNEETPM

With `CCNC(=O)[C@@H]1CCCN1C(=O)COc1cc(C(=O)N[C@@H](CCC(=O)O)C(=O)N2CCN(C(=O)OCC)CC2)nc2cccc(F)c12` the IC50 [1] was 30 nM.
`CCCC(=O)c1cc(C#N)c(N(C(=O)C2CCNCC2)S(=O)(=O)CCc2ccccc2)nc1C` gave an IC50 [2] of 260 nM.
Molecule `CC1CC(=O)NN=C1c1ccc(NC(=N)N)cc1` (centres undefined) has an Activity [3] of 100%, an Activity [4] of 95.09% and an Activity [5] of 100%. For the same molecule, the IC50 [6] was 197 nM.
For `CCCCOC(=O)N1CCN(C(=O)[C@H](CCP(=O)(O)O)NC(=O)c2cc(N3CC[C@H](OC)C3)nc(-c3ccccc3)n2)CC1`, the IC50 [7] was 1 nM.
Molecule `CCOC(=O)N1CCN(C(=O)[C@H](CCC(=O)O)NC(=O)c2cc(OCC(=O)N3CCC[C@H]3C(=O)NC3CCC3)n(-c3cccc(F)c3)n2)CC1` has an IC50 [8] of at most 11 nM.
`CCCCOC(=O)N1CCN(C(=O)[C@H](CP(=O)(O)O)NC(=O)c2nc(-c3ccccc3)sc2N2CCN(C)CC2)CC1` gave an IC50 [9] of 1 nM.
In the case of `CCCCOC(=O)N1CCN(C(=O)[C@H](CCC(=O)O)NC(=O)c2cc(OCC(=O)N3CCC[C@H]3C(=O)N(C)C3CC3)n(-c3ccccc3)n2)CC1`, the IC50 [8] is reported as at most 11 nM.
With `CCOC(=O)N1CCN(C(=O)[C@H](Cc2ccc(P(=O)(O)O)cc2)NC(=O)c2csc(-c3ccccc3)n2)CC1` the IC50 [9] was 1 nM.
For `CCCSc1nc(N[C@@H]2C[C@H]2c2ccccc2)c2nnn([C@@H]3CC[C@H](O)[C@@H](O)[C@H]3O)c2n1`, the IC50 [10] was 1350 nM.
`CC(C)CCCC(C)[C@H]1CC[C@]2(C)[C@@H]1[C@H](O)C[C@@H]1[C@@]3(C)CC[C@H](O)C(C)(C)[C@@H]3[C@@H](O[C@@H]3O[C@H](CO)[C@@H](O)[C@H](O)[C@H]3O)C[C@]12C` (some centres undefined) gave an IC50 [11] of 30.9 µM.
`CCC(C)C(N)C(=O)Oc1cc2c(s1)CCN(C(C(=O)C1CC1)c1ccccc1F)C2.Cl` (centres undefined) showed an ED50 [12] of 0.74 mg/kg.
For `CCCCOC(=O)N1CCN(C(=O)[C@H](CP(=O)(O)O)NC(=O)c2nc(-c3ccccc3)sc2N(C)CCCC)CC1`, the IC50 [9] was 1 nM.
Molecule `CCOC(=O)N1CCN(C(=O)[C@@H](CCC(=O)O)NC(=O)c2cc(Cl)cc(-c3ccccc3)n2)CC1` has an IC50 [9] of 34 nM.
With `CCOC(=O)N1CCN(C(=O)[C@H](CCC(=O)O)NC(=O)c2cc(O[C@H](C)C(=O)N3CCC[C@H]3C(=O)NC3CCCC3)c3ccc(C)cc3n2)CC1` the IC50 [1] was 30 nM.
For `CC(=O)CCC1=C(C)C[C@@H](O[C@@H]2O[C@H](CO[C@@H]3OC[C@@H](O)[C@H](O)[C@H]3O)[C@@H](O)[C@H](O)[C@H]2O)CC1(C)C`, the Activity [13] was 89.59%.
For `Cc1cnc(-c2cnc(N3CCN(C(=O)NS(=O)(=O)c4ccccc4)CC3)c(Cl)c2)o1`, the IC50 [14] was 320 nM.
For `COC(=O)[C@H](c1ccccc1Cl)N1CCc2sccc2C1` [CLOPIDOGREL], the logP [15] was 3.74.
`COc1cc2c(cc1OC)-c1c(C)c3ccc(OC)c(OC)c3c[n+]1CC2` [DEHYDROCORYDALINE] showed an Activity [16] of 73.48%.
Work on `CNc1cc2[nH]c(=O)n(-c3ccc(NC(=O)NS(=O)(=O)c4ccc(Cl)s4)cc3)c(=O)c2cc1F` [ELINOGREL] yielded a half-life [17] of 720 min, an Activity [18] of 60% and an IC50 [19] of 10 µM. The IC50 [20] was 50 nM.
`C[C@@H]1CC[C@]2(C(=O)O)CC[C@]3(C)C(=CC[C@@H]4[C@@]5(C)CC[C@H](O)C(C)(C)[C@@H]5CC[C@]43C)[C@@H]2[C@]1(C)O` [POMOLIC ACID] gave an IC50 [21] of 20 nM.
In the case of `CC(=O)Oc1cc2c(s1)CCN(C(C(=O)C1CC1)c1ccccc1F)C2` (centres undefined) [PRASUGREL], the logP [15] is reported as 3.42.
`O=C(/C=C/c1ccc(O)c(O)c1/C=C/c1ccc(O)c(O)c1)O[C@H](Cc1ccc(O)c(O)c1)C(=O)O` [SALVIANOLIC ACID A] showed a Ki [22] of 20.3 µM.
For `Clc1ccccc1CN1CCc2sccc2C1` [TICLOPIDINE], the logP [15] was 4.05.
